Patent US20220265817A1, “THERAPEUTIC COMPOSITIONS AND METHODS FOR TREATING HEPATITIS B” (priority 2017, published 2022)
“And” between values parts separate entries of the source, which are not always exact repeats. Equal entries are not always repeated. Where two headings read alike, the source gives them in different places.

Experiments:
Assay in all cases: microbe, parasite or virus in culture
Type in all cases: cell-based
[1] = test system: D type HBV in primary human hepatocytes (HBsAg)
Protocol: (§1) The mouse liver perfusion was applied to isolate PHHs. The isolated hepatocytes were further purified by Percoll. The cells were resuspended with culture media and seeded into the 96-well plates (6×10^4 cell/well) or 48-well plates (1.2×10^5 cell/well). The PHHs were infected with a D type HBV one day post seeding (day 1).
(§2) On day 2, the test compounds were diluted and added into the cell culture plates. The culture media containing the compounds were refreshed every other day. The cell culture supernatants were collected on day 8 for the HBV DNA and antigen determinations.
(§3) The compounds were tested at 7 concentrations, 3-fold dilution, in triplicate.
(§4) Two compounds were tested at 5×5 matrix, in triplicate plates.
(§5) HBsAg/HBeAg in the culture supernatants harvested on days 8 were measured by the HBsAg/HBeAg ELISA kit (Autobio) according to the manual. The samples were diluted with PBS to get the signal in the range of the standard curve. The inhibition rates were calculated with the formula below. The combination effect was analyzed by the MacSynergy software.
% Inh. HBsAg=[1-HBsAg quantity of sample/HBV quantity of DMSO control]×100.

[2] = test system: D type HBV in primary human hepatocytes (HBeAg)
Protocol: as §1, §2, §3, §4, §5
% Inh. HBeAg=[1-HBeAg quantity of sample/HBV quantity of DMSO control]×100.

[3] = test system: D type HBV in primary human hepatocytes; settings: for EC50: PHH
Protocol: as §1, §2, §3, §4
DNA in the culture supernatants harvested on days 8 were isolated with QIAamp 96 DNA Blood Kit (Qiagen-51161). For each sample, 100 μl of the culture supernatants was used to extract DNA. The DNA was eluted with 100 μl, 150 μl or 180 μl of AE. HBV DNA in the culture supernatants was quantified by qPCR. The combination effect was analyzed by the MacSynergy software. The primers are described below.

[4] = Hepatitis B virus, Hepatocyte, 432 h, read-out: Inhibitor B EC50
[5] = Hepatitis B virus, Hepatocyte, 456 h, read-out: Inhibitor A EC50

## CNC(=O)N[C@H]1CCOc2c(C(=O)Nc3ccc(F)c(F)c3)ccc(F)c21 [Compound 23]
[1]; Hepatitis B virus, Hepatocyte, read-out: AVERAGE % INHIBITION HBsAg, compound 23 24.69 nM alone (TDF study)
  inhibition at 0.02469 µM: -13.9%
[1]; Hepatitis B virus, Hepatocyte, read-out: AVERAGE % INHIBITION HBsAg, compound 23 24.691 nM alone (TAF study)
  inhibition at 0.024691 µM: 0.77%
[1]; Hepatitis B virus, Hepatocyte, read-out: AVERAGE % INHIBITION HBsAg, compound 23 74.07 nM alone (TDF study)
  inhibition at 0.07407 µM: -10.9%
[1]; Hepatitis B virus, Hepatocyte, read-out: AVERAGE % INHIBITION HBsAg, compound 23 74.074 nM alone (TAF study)
  inhibition at 0.074074 µM: -5.27%
[1]; Hepatitis B virus, Hepatocyte, read-out: AVERAGE % INHIBITION HBsAg, compound 23 222.22 nM alone (TAF study)
  inhibition at 0.22222 µM: 4.83%
[1]; Hepatitis B virus, Hepatocyte, read-out: AVERAGE % INHIBITION HBsAg, compound 23 222.22 nM alone (TDF study)
  inhibition at 0.22222 µM: -11.6%
[1]; Hepatitis B virus, Hepatocyte, read-out: AVERAGE % INHIBITION HBsAg, compound 23 666.67 nM alone (TAF study)
  inhibition at 0.66667 µM: 1.95%
[1]; Hepatitis B virus, Hepatocyte, read-out: AVERAGE % INHIBITION HBsAg, compound 23 666.67 nM alone (TDF study)
  inhibition at 0.66667 µM: -4.45%
[1]; Hepatitis B virus, Hepatocyte, read-out: AVERAGE % INHIBITION HBsAg, compound 23 2000.00 nM alone (TDF study)
  inhibition at 2 µM: 0.48%
[1]; Hepatitis B virus, Hepatocyte, read-out: Inhibitor B EC50
  EC50: 4360 nM
[2]; Hepatitis B virus, Hepatocyte, read-out: AVERAGE % INHIBITION HBeAg, compound 23 24.69 nM alone
  inhibition at 0.02469 µM: -8.82%
[2]; Hepatitis B virus, Hepatocyte, read-out: AVERAGE % INHIBITION HBeAg, compound 23 74.07 nM alone
  inhibition at 0.07407 µM: -6.36%
[2]; Hepatitis B virus, Hepatocyte, read-out: AVERAGE % INHIBITION HBeAg, compound 23 222.22 nM alone
  inhibition at 0.22222 µM: -12.7%
[2]; Hepatitis B virus, Hepatocyte, read-out: AVERAGE % INHIBITION HBeAg, compound 23 666.67 nM alone
  inhibition at 0.66667 µM: -7.94%
[2]; Hepatitis B virus, Hepatocyte, read-out: AVERAGE % INHIBITION HBeAg, compound 23 2000.00 nM alone
  inhibition at 2 µM: -1.09%
[2]; Hepatitis B virus, Hepatocyte, HBeAg, PHH, determined in an earlier separate experiment, read-out: Inhibitor B EC50
  EC50: 4530 nM
[3]; Hepatitis B virus, Hepatocyte, read-out: AVERAGE % […] DNA, compound 23 24.69 nM alone (TDF study)
  inhibition at 0.02469 µM: -15.3%
[3]; Hepatitis B virus, Hepatocyte, read-out: AVERAGE % […] DNA, compound 23 24.691 nM alone (TAF study)
  inhibition at 0.024691 µM: -4.57%
[3]; Hepatitis B virus, Hepatocyte, read-out: AVERAGE % […] DNA, compound 23 74.07 nM alone (TDF study)
  inhibition at 0.07407 µM: -36.6%
[3]; Hepatitis B virus, Hepatocyte, read-out: AVERAGE % […] DNA, compound 23 74.074 nM alone (TAF study)
  inhibition at 0.074074 µM: -2.49%
[3]; Hepatitis B virus, Hepatocyte, read-out: AVERAGE % […] DNA, compound 23 222.22 nM alone (TAF study)
  inhibition at 0.22222 µM: 11.1%
[3]; Hepatitis B virus, Hepatocyte, read-out: AVERAGE % […] DNA, compound 23 222.22 nM alone (TDF study)
  inhibition at 0.22222 µM: 0.78%
[3]; Hepatitis B virus, Hepatocyte, read-out: AVERAGE % […] DNA, compound 23 666.67 nM alone (TAF study)
  inhibition at 0.66667 µM: 30.5%
[3]; Hepatitis B virus, Hepatocyte, read-out: AVERAGE % […] DNA, compound 23 666.67 nM alone (TDF study)
  inhibition at 0.66667 µM: 30.4%
[3]; Hepatitis B virus, Hepatocyte, read-out: AVERAGE % […] DNA, compound 23 2000 nM alone (TAF study)
  inhibition at 2 µM: 58.1%
[3]; Hepatitis B virus, Hepatocyte, read-out: AVERAGE % […] DNA, compound 23 2000.00 nM alone (TDF study)
  inhibition at 2 µM: 70%
[3]; Hepatitis B virus, Hepatocyte, HBV DNA, determined in an earlier separate experiment, read-out: Inhibitor B EC50
  EC50: 230 nM

## COCCCOc1cc2c(cc1OC)-c1cc(=O)c(C(=O)O)cn1C(C(C)C)C2 (centres unmarked) [Compound 25]
[1]; COMPOUND 25 0.12 nM alone
  AVERAGE % INHIBITION (HBsAg): 3.68% and 9.32%
[1]; COMPOUND 25 3.33 nM alone
  AVERAGE % INHIBITION (HBsAg): 20.81%
[1]; COMPOUND 25 10.00 nM alone
  AVERAGE % INHIBITION (HBsAg): 42.95%
[1]; [4]
  EC50: 4.5 nM
[1]; [5]
  EC50: 4.5 nM
[1]; Hepatitis B virus, Hepatocyte, COMPOUND 25 0.12 μM alone
  inhibition at 0.12 µM: -5.64%
[1]; Hepatitis B virus, Hepatocyte, COMPOUND 25 0.37 μM alone
  inhibition at 0.37 µM: -7.52%
[1]; Hepatitis B virus, Hepatocyte, read-out: AVERAGE % INHIBITION HBsAg, COMPOUND 25 3.33 nM alone
  inhibition at 0.00333 µM: 13.1%
[1]; Hepatitis B virus, Hepatocyte, read-out: AVERAGE % INHIBITION HBsAg, COMPOUND 25 10.00 nM alone
  inhibition at 0.01 µM: 33%
[1]; Hepatitis B virus, Hepatocyte, read-out: AVERAGE % INHIBITION HBsAg, COMPOUND 25 3.33 μM alone
  inhibition at 3.33 µM: 8.81%
[1]; Hepatitis B virus, Hepatocyte, read-out: AVERAGE % INHIBITION HBsAg, COMPOUND 25 10.00 μM alone
  inhibition at 10 µM: 42.5%
[1]; Hepatitis B virus, Hepatocyte, read-out: Inhibitor A EC50 HBsAg
  EC50: 4.5 nM
[2]; COMPOUND 25 0.12 nM alone
  AVERAGE % INHIBITION HBeAg: 4.8%
[2]; COMPOUND 25 0.37 nM alone
  AVERAGE % INHIBITION HBeAg: −0.51% and 2.9%
[2]; COMPOUND 25 3.33 nM alone
  AVERAGE % INHIBITION HBeAg: 13.94%
[2]; COMPOUND 25 10.00 nM alone
  AVERAGE % INHIBITION HBeAg: 28.42%
[2]; [4]
  EC50: 5.75 nM
[2]; [5]
  EC50: 5.75 nM
[2]; Hepatitis B virus, Hepatocyte, read-out: AVERAGE % INHIBITION HBeAg, COMPOUND 25 0.12 nM alone
  inhibition at 0.00012 µM: 5.33%
[2]; Hepatitis B virus, Hepatocyte, read-out: AVERAGE % INHIBITION HBeAg, COMPOUND 25 3.33 nM alone
  inhibition at 0.00333 µM: 8.74%
[2]; Hepatitis B virus, Hepatocyte, read-out: AVERAGE % INHIBITION HBeAg, COMPOUND 25 10.00 nM alone
  inhibition at 0.01 µM: 33.2%
[2]; Hepatitis B virus, Hepatocyte, read-out: AVERAGE % INHIBITION HBeAg, COMPOUND 25 0.12 μM alone
  inhibition at 0.12 µM: -11.2%
[2]; Hepatitis B virus, Hepatocyte, read-out: AVERAGE % INHIBITION HBeAg, COMPOUND 25 0.37 μM alone
  inhibition at 0.37 µM: -13.8%
[2]; Hepatitis B virus, Hepatocyte, read-out: AVERAGE % INHIBITION HBeAg, COMPOUND 25 3.33 μM alone
  inhibition at 3.33 µM: -7.31%
[2]; Hepatitis B virus, Hepatocyte, read-out: AVERAGE % INHIBITION HBeAg, COMPOUND 25 10.00 μM alone
  inhibition at 10 µM: 22%
[2]; Hepatitis B virus, Hepatocyte, read-out: Inhibitor A EC50 HBeAg
  EC50: 5.75 nM
[3]; COMPOUND 25 0.37 nM alone
  AVERAGE % INHIBITION HBV DNA: −51.8% and −46.48%
[3]; COMPOUND 25 3.33 nM alone
  AVERAGE % INHIBITION HBV DNA: 16.41%
[3]; COMPOUND 25 10.00 nM alone
  AVERAGE % INHIBITION HBV DNA: 37.39%
[3]; Hepatitis B virus, Hepatocyte, 432 h, HBV DNA endpoint, determined in an earlier separate experiment (Table 18d), read-out: Inhibitor B EC50
  EC50: 0.654 nM
[3]; Hepatitis B virus, Hepatocyte, 456 h, HBV DNA endpoint, determined in an earlier separate experiment (Table 19d), read-out: Inhibitor A EC50
  EC50: 0.654 nM
[3]; Hepatitis B virus, Hepatocyte, read-out: AVERAGE % […] DNA, COMPOUND 25 3.33 nM alone, read-out: AVERAGE % INHIBITION HBV DNA
  inhibition at 0.00333 µM: 15.2%
[3]; Hepatitis B virus, Hepatocyte, read-out: AVERAGE % […] DNA, COMPOUND 25 10.00 nM alone, read-out: AVERAGE % INHIBITION HBV DNA
  inhibition at 0.01 µM: 28%
[3]; Hepatitis B virus, Hepatocyte, read-out: AVERAGE % […] DNA, compound 25 0.12 μM alone
  inhibition at 0.12 µM: -14.4%
[3]; Hepatitis B virus, Hepatocyte, read-out: AVERAGE % […] DNA, compound 25 0.37 μM alone
  inhibition at 0.37 µM: -9.87%
[3]; Hepatitis B virus, Hepatocyte, read-out: AVERAGE % […] DNA, compound 25 3.33 μM alone
  inhibition at 3.33 µM: 32.6%
[3]; Hepatitis B virus, Hepatocyte, read-out: AVERAGE % […] DNA, compound 25 10.00 μM alone
  inhibition at 10 µM: 53.8%
[3]; Hepatitis B virus, Hepatocyte, determined in an earlier separate experiment, read-out: Inhibitor A EC50 HBV DNA
  EC50: 0.653 nM
